# From patent publication US11510899B2, “RTX toxin production inhibitor and composition for treating symptom of vibrio infection by using same” (priority 2018, dated 2022)
# Legend:
# [1] = In-vivo toxicity of CM2660 injected alone; conditions: subcutaneous, ICR female mice
# Description: (§1) In order to determine whether or not CM2660 also decreases the virulence of Vibrio vulnificus in vivo using 7-week-old ICR female mice, Vibrio vulnificus cultured at A600=0.5 at 30° C. was prepared. This was mixed with DMSO (10%) or CM2660 (1.4 mg/kg of mouse body weight) and the resulting mixture was subcutaneously injected into the back of mice anesthetized with isoflurane. In addition, only CM2660 was injected subcutaneously in order to determine the in-vivo toxicity of CM2660 (FIG. 22). FIG. 22 is a graph showing the results of observation of the expression of in-vivo toxicity of Vibrio vulnificus after injecting CM2660 into mice.
# [2] = system: rtxA, vvhA and plpA; assay: qRT-PCR of virulence genes activated by HlyU in Vibrio vulnificus; type: cell-based; conditions: 20 μM
# Description: The effect of CM2660 on the expression of rtxA, vvhA and plpA, the virulence genes of Vibrio vulnificus activated by HlyU, was investigated. […] Then, the culture solution were sampled at the time at which the expression of each gene was mainly controlled by HlyU (A600=0.5 for rtxA and vvhA, and A600=1.0 for plpA), RNA was purified, and quantitative real-time polymerase chain reaction (quantitative Real-Time (qRT)-PCR) was performed (FIGS. 10 to 12).
# [3] = system: HlyU; assay: Amount of HlyU protein in cells of Vibrio vulnificus; type: cell-based; conditions: various concentrations, added at A600=0.2, harvested at A600=0.5, vs 2% DMSO
# Description: In order to determine the mechanism by which the HlyU inhibitor CM2660 inhibited the activity of HlyU, Vibrio vulnificus was cultured at 30° C. and treated with various concentrations of CM2660 at A600=0.2. […] Then, the cell solution was centrifuged at A600=0.5, indicating the time when the intracellular amount of HlyU was maximized, and only the cell portion (pellet) was recovered. The recovered cells were chemically lysed to determine the amount of HlyU in each sample (FIG. 9).
# [4] = target: T1, HlyU (Vibrio vulnificus, UniProt A0A3Q0L222); assay: High-throughput screening with E. coli reporter strain (pKK1306 + pZW1608 lux reporter); type: cell-based
# T1 sequence (A0A3Q0L222 1-98): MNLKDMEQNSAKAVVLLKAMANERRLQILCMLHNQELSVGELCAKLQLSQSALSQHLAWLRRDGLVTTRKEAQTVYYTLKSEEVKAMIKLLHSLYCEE
# Excerpt: Meanwhile, to perform E. coli reporter strain construction and high-throughput screening, a pKK1306 plasmid cloned to induce wild-type hlyU genes by arabinose was constructed. The reporter plasmid is pZW1608, in which the promoter of the VVMO6_00539 gene, expression of which is directly repressed by HlyU, is cloned in front of the bioluminescence operon (lux operon). These two plasmids were simultaneously transformed into E. coli DH5 to construct an E. coli reporter strain (FIG. 1). FIG. 1 is a schematic diagram illustrating the strategy used to screen selective inhibitors of HlyU.
# For the screening, approximately 8400 low-molecular-weight compounds were obtained from Korea Compound Bank and used in this experiment. […] When the absorbance at 600 nm (A600) of the culture solution, which was cultured at 37° C., reached 0.5, 100 μl of the culture solution was transferred to a 96-well black plate. […] While culturing at 37° C., the growth and bioluminescence of the reporter strain were measured using an Infinite™ M200 microplate reader (Tecan, Mannedorf, Switzerland). The relative luminescence unit (RLU) was calculated through normalization by division of the measured luminescence value by the absorbance. RLU=luminescence/absorbance [Equation 1] […]
# [5] = system: Vibrio vulnificus; assay: Growth of Vibrio vulnificus; type: cell-based; conditions: 20-500 μM CM2660
# Description: While culturing at 30° C., the growth of the reporter strain and the degree of bioluminescence thereof were measured in the same manner as in Example 1, and the RLU was calculated. The RLU of the DMSO-treated control group was expressed as 100% HlyU activity. HlyU activity was plotted according to the concentration of the derivative compound, and EC50 (half maximal effective concentration) was calculated using GraphPad Prism 7.0 (GraphPad Software, San Diego, Calif.) (FIG. 6, Table 2).
# Therefore, Vibrio vulnificus was treated with various concentrations of CM2660, and the growth of Vibrio vulnificus was observed (FIG. 20).
# [6] = system: Vibrio alginolyticus; assay: Cytotoxicity of Vibrio alginolyticus; type: cell-based; conditions: CM2660 at different concentrations
# [7] = target: T1, HlyU; assay: Electrophoretic mobility shift assay (EMSA), HlyU binding to rtxA promoter DNA
# Description: In order to investigate the effect of CM2660 on the DNA-binding capability of the HlyU protein, electrophoretic mobility shift assay (EMSA) experiments were performed using DNA at the known HlyU-binding rtxA promoter site.
# The promoter site of the rtxA gene was amplified by PCR using ^32P-labeled primer, PrtxA-R (5′-[…]-3′) and unlabeled primer PrtxA-F (5′-[…]-3′). This DNA probe was reacted with 50 nM or 100 nM HlyU, 100 μM CM2660 or DMSO in reaction buffer (10 mM Tris-Cl, 50 mM KCl, 5 mM MgCl2, 0.75 mM DTT and 5% glycerol, 0.1 μg poly(dl-dC)) at 25° C. for 30 minutes.
# The DNA-HlyU complex was electrophoresed on a polyacrylamide gel and phosphoimaged through Typhoon FLA7000 to determine the band position (FIG. 15, FIG. 16).
# [8] = system: Vibrio vulnificus; assay: Mouse infection with Vibrio vulnificus, survival; type: in vivo; conditions: 1.4 mg/kg mixed with bacteria, subcutaneous, ICR female mice, vs DMSO
# Description: as §1
smiles,measurement,setting,value
"O=C(C#Cc1ccccc1)Nc1scc2c1c(=O)oc1ccccc12 [CM2660, N-(4-oxo-4H-thieno[3,4-c]chromen-3-yl)-3-phenylprop-2-ynamide]",in-vivo toxicity (survival after CM2660 alone),[1],did not show in-vivo toxicity
same,rtxA mRNA level,"[2]; A600=0.5, vs 2% DMSO",significantly reduced
same,vvhA mRNA level,"[2]; A600=0.5, vs 2% DMSO",significantly reduced
same,plpA mRNA level,"[2]; A600=1.0, vs 2% DMSO",significantly reduced
same,amount of HlyU in the cells,[3],no significant difference
same,bioluminescence of E. coli reporter strains,"[4]; 20 μM compound, 0.0002% arabinose, vs DMSO",significantly increased
same,HlyU inhibitory effect among the seven screened compounds,"[4]; Example 1, E. coli and Vibrio reporter strains",best effect
same,in-vitro growth of Vibrio vulnificus,[5],no significant effect
same,cytotoxicity of Vibrio alginolyticus,[6],reduced in a concentration-dependent manner
same,DNA-binding capability of HlyU,"[7]; 100 μM compound, 50 nM or 100 nM HlyU, 25° C., 30 minutes",significantly decreased
same,"DNA-binding capability of HlyU, concentration dependence",[7]; CM2660 at different concentrations,decrease became greater as the concentration of CM2660 increased
same,viability (survival) of mice infected with Vibrio vulnificus,[8],significantly higher
